Measured values reported in patent US6623933B1 (priority 1999, dated 2003).
Where a name gives a salt, the structure may show the parent alone. Read-outs that look alike come from different tables or passages of the source.

Key:
Assay type in all cases: cell-based
[1] = tested on: primary cultures of rat hippocampal neurons; assay: NMDA-induced neuronal death, trypan blue exclusion
NR1100 NMDA receptor = biological target: T1, NR1100 NMDA receptor (Rattus norvegicus, UniProt P35439); assay: NMDA-induced currents, Xenopus oocytes injected with NR1100 cRNA only, Example 1
T1 construct: expressed in transfected cells; host or cells: Xenopus oocytes injected with NR1100 cRNA only
Description: (§1) Plasmids were obtained from the following individuals: Dr. Suzanne Zukin (Albert Einstein College of Medicine, Bronx, N.Y.), NR1100; Dr. Shigetada Nakanishi (Kyoto University Faculty of Medicine, Kyoto, Japan), NR2A; Dr. Stephen Heinemann (Salk Institute, San Diego, Calif.), GluR1 (flop), GluR3 (flop), and GluR6. Plasmids were linearized with BamH1 (NR1100), XhoI (NR2A, GluR1, GluR3) or XbaI (GluR6) prior to in vitro transcription with T3 (GluR1, GluR3, GluR6) or T7 (NR1100, NR2A) RNA polymerase using the Message Machine kit (Ambion, Austin, Tex.). […] RNA solutions (50-70 nl) were injected into oocytes for delivery of NR1100 (5 ng), NR1100:NR2A (1:10 ng), GluR1 (5 ng). GluR3 (5 ng), or GluR6 (20 ng). Oocytes were incubated in ND96 at 18-20° C. for 3-7 days prior to electrophysiological recording.
(§2) Steroid solutions were prepared as 70-100 mM frozen stocks in dimethyl sulfoxide (DMSO). The final DMSO concentration of all recording solutions was between 0.1% to 0.5% and was constant within an experiment.
(§3) Perfusion control and data acquisition were carried out using an automated oocyte electrophysiology workstation that was developed for the rapid collection of concentration-response data and real-time waveform analysis (Yaghoubi et al., Soc. Neurosci. Abstr. 20: 1109 (1995)). This system is implemented on a Macintosh IIci computer (Apple Computer, Cupertino, Calif.) equipped with MacA-DIOS II data acquisition and control hardware (GW Instruments, Somerville, Mass.). Drug application is controlled by the computer through a series of valves, using custom-written software based on the SuperScope II development environment, improving the efficiency and reproducibility of data collection. Experiments were carried out using an Axoclamp-2A voltage clamp amplifier (Axon Instruments, Foster City, Calif.) in two-electrode voltage clamp mode. Intracellular microelectrodes (1-3 MΩ) were filled with 3 M KCl. […] Membrane potential was clamped at −60 to −70 mV and stepped to −100 mV at the start of data acquisition unless otherwise stated. […] Current and voltage recordings were digitized at 100 Hz for analysis. GluR6 injected oocytes were treated for 10 min with 10 μg/ml concanavalin A to prevent fast desensitization.
(§4) Results are expressed as mean±S.E.M. Statistical comparisons were made using Student's t-test.

NR1111/NR2A = assay: NMDA-induced currents of NR1 splice variants, Xenopus oocytes, Example 4
Experimental: Overnight cultures (500 ml) of transformed bacterial cells were prepared in order to grow sufficient quantities for maxiprep isolation of the plasmid CDNA. Maxipreps were done using a Sorvall RC-5B ultracentrifuge, Qiagen columns and cDNA was quantitated with spectrophotometry (OD260 and OD260/ OD280 ratio). The resulting plasmid cDNA was linearized by digestion with an appropriate restriction enzyme that cleaves distal to the cDNA insert (XhoI for NR2A or NotI for NR1100, NR1000, NR1111, NR1011, NR1101, NR1001). […] The samples were stored at −20° C. until use.
In vitro transcription was performed using the Ambion mMessage mMachine kit with T7 (NR1100, NR1000, NR1111, NR1011, NR1101, NR1001) RNA polymerase. The reaction was assembled on ice and allowed to incubate at 37° C. for 1-2 hr. The resulting mRNA was precipitated (reaction termination) using lithium chloride/5 mM EDTA solution and dissolved in RNase-free H2O. The concentration (OD260) and OD260/OD280 ratio (should be more than 1.5) was determined by spectrophotometer. The yield of mRNA was generally 15-30 μg. mRNA was stored at −80° C. until use.
Intracellular recording microelectrodes were fabricated from 100 μl borosilicate glass disposable micropipettes using a 2-step protocol on a standard horizontal Flaming-Brown micropipette puller.

GluR3 AMPA receptor = biological target: T2, GluR3 AMPA receptor (Rattus norvegicus, UniProt P19492); assay: Kainate-induced currents, Xenopus oocytes injected with GluR3 cRNA
T2 construct: expressed in transfected cells; host or cells: Xenopus oocytes injected with GluR3 cRNA
Description: as §1, §2, §3, §4

[2] = acute 15 min NMDA exposure, +100 μM 3α5βS
[3] = acute 15 min NMDA exposure, DMSO vehicle
[4] = chronic 16 hour NMDA exposure, +100 μM 3α5βS
[5] = chronic 16 hour NMDA exposure, DMSO vehicle

T2 sequence (P19492 23-888): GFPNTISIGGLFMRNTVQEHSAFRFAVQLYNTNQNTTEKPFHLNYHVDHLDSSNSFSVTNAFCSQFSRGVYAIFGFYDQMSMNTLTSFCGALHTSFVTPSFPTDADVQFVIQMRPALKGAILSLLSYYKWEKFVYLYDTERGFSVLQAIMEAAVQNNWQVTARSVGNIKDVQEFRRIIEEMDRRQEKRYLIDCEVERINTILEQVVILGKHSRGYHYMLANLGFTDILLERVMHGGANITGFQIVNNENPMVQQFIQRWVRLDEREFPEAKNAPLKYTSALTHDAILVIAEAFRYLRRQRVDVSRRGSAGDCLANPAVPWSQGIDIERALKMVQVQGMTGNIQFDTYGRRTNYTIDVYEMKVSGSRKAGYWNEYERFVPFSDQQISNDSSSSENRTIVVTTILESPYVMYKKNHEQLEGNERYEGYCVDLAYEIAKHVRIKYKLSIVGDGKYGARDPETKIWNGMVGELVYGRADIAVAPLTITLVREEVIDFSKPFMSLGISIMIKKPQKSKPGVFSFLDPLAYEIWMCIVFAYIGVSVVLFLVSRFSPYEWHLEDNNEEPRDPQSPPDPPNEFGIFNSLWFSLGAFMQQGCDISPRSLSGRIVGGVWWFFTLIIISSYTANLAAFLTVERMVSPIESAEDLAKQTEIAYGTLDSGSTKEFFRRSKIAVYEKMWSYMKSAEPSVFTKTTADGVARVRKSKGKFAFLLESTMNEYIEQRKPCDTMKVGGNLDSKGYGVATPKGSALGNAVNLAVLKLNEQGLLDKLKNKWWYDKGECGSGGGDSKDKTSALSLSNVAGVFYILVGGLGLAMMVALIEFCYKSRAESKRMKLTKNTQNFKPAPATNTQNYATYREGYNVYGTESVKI

With `CC(=O)[C@H]1CC[C@H]2[C@@H]3CC[C@@H]4C[C@H](OS(=O)(=O)O)CC[C@]4(C)[C@H]3CC[C@]12C` [3α5βS, 3α5β-pregnanolone sulfate] as the molecule, how does the EC50 ([1]; Rattus norvegicus, Hippocampal neuron, read-out: 3α5βS EC50, inhibition of NMDA-induced neuronal death) read?
Its EC50 is 45 µM.

And the “3α5βS nH, inhibition of neuronal death” value ([1]; acute 30 μM NMDA exposure)?
The value was 2.5.

What about the “maximal inhibition (Imax) of cell death” value ([1]; acute 30 μM NMDA exposure) of the same molecule?
The value was 97%.

And the “inhibition of NMDA-induced neuronal death” value ([1]; acute 30 μM NMDA, steroid 100 μM (3α5β 50 μM))?
The value was “nearly eliminates the toxic effects”.

What about the EC50 (NR1100 NMDA receptor) of the same molecule?
Its EC50 is 57 µM.

And the “difference in percentage inhibition between NR1011/NR2A and NR1111/NR2A” value (NR1111/NR2A; 100 μM 3α5βS)?
The value was 5%.

What about the “Percentage change in kainate response” value (GluR3 AMPA receptor) of the same molecule?
The value was −63 ± 8(4) %.

With `CN[C@H](CC(=O)O)C(=O)O` [NMDA, N-methyl-D-aspartate] as the molecule, how does the “NMDA Emax, neuronal death” value [1, 2] read?
Its value is 63%.

And the “NMDA nH, neuronal death” value [1, 2]?
Its value is 1.8.

What about the “NMDA Emax, neuronal death” value [1, 3] of the same molecule?
The value was 80%.

And the “NMDA nH, neuronal death” value [1, 3]?
Its value is 2.1.

What about the “NMDA Emax, neuronal death” value [1, 4] of the same molecule?
Its value is 70%.

And the “NMDA nH, neuronal death” value [1, 4]?
The value was 2.0.

What about the “NMDA Emax, neuronal death” value [1, 5] of the same molecule?
Its value is 86%.

And the “NMDA nH, neuronal death” value [1, 5]?
Its value is 1.9.

And the EC50 ([1]; read-out: NMDA EC50 for neuronal death, acute 15 min NMDA exposure, +100 μM 3α5βS)?
Its EC50 is 71 µM.

And the EC50 ([1]; read-out: NMDA EC50 for neuronal death, acute 15 min NMDA exposure, DMSO vehicle)?
Its EC50 is 28 µM.

What about the EC50 ([1]; read-out: NMDA EC50 for neuronal death, chronic 16 hour NMDA exposure, +100 μM 3α5βS) of the same molecule?
Its EC50 is 15 µM.

How did the “maximum potentiation of NMDA induced current” value (NR1100 NMDA receptor; NR1100 cRNA only) turn out when pregnenolone sulfate [PS] was run?
Its value is 114%.

What about the “steroid Emax (NMDA-induced current relative to control)” value (NR1100 NMDA receptor; NR1100 cRNA only, 300 μM NMDA) of the same molecule?
The value was 2.14.

What about the “difference in mrc between NR1011/NR2A and NR1111/NR2A” value (NR1111/NR2A) of the same molecule?
Its value is 1.2 fold.

And the “difference in mrc between NR1011/NR2A and NR1111/NR2A” value (NR1111/NR2A; 100 μM PS, pH 6.5)?
The value was 1.8 fold.

What about the “difference in mrc between NR1011/NR2A and NR1111/NR2A” value (NR1111/NR2A; 100 μM PS, pH 7.5) of the same molecule?
Its value is 1.6 fold.

What about the “difference in percentage potentiation between NR1011/NR2A and NR1111/NR2A” value (NR1111/NR2A; 100 μM PS, pH 7.5) of the same molecule?
Its value is 106%.

And the “difference in percentage potentiation between NR1011/NR2A and NR1111/NR2A” value (NR1111/NR2A; 100 μM PS, pH 8.5)?
Its value is 91%.

And the “PS Emax, percentage change in kainate-induced current” value (GluR3 AMPA receptor; GluR3, 100 μM kainate)?
Its value is −90%.

What about the “inhibition of kainate response” value (GluR3 AMPA receptor; GluR3, 200 μM PS) of the same molecule?
The value was 81±3%.

And the “reduction of kainate Imax” value (GluR3 AMPA receptor; GluR3, PS 100 μM)?
Its value is 71%.

And the “inhibition of the response to kainate” value (GluR3 AMPA receptor; GluR3, steroid 100 μM)?
Its value is “over 70%”.

And the “Percentage change in kainate response” value (GluR3 AMPA receptor; GluR3, steroid 100 μM, 100 μM kainate, −100 mV)?
The value was −73 ± 3(8) %.
